# Measured values: ChEMBL document CHEMBL4308841, “Synthesis, in vitro antiproliferative activity, and kinase inhibitory effects of pyrazole-containing diarylureas and diarylamides” (Eur J Med Chem, 2018)
# Test system: KM12
# Assay: Growth inhibition of human KM12 cells assessed as cell growth at 10 uM incubated for 48 hrs by sulforhodamine B assay relative to control
# Type: functional
# Conditions: KM12, 48 h, read-out: Activity
row,SMILES,growth at 10 µM [%]
1,COc1cc(Cl)cc(-c2nn(-c3cccc(NC(=O)c4ccc(N5CCOCC5)c(C(F)(F)F)c4)c3)cc2-c2ccncc2)c1,38.4

# Test system: SF-295
# Assay: Growth inhibition of human SF295 cells assessed as cell growth at 10 uM incubated for 48 hrs by sulforhodamine B assay relative to control
# Type: functional
# Conditions: SF-295, 48 h, read-out: Activity
row,SMILES,growth at 10 µM [%]
1,COc1cc(Cl)cc(-c2nn(-c3cccc(NC(=O)c4ccc(N5CCOCC5)c(C(F)(F)F)c4)c3)cc2-c2ccncc2)c1,2.6

# Test system: SF-268
# Assay: Growth inhibition of human SF268 cells assessed as cell growth at 10 uM incubated for 48 hrs by sulforhodamine B assay relative to control
# Type: functional
# Conditions: SF-268, 48 h, read-out: Activity
row,SMILES,growth at 10 µM [%]
1,COc1cc(Cl)cc(-c2nn(-c3cccc(NC(=O)c4ccc(N5CCOCC5)c(C(F)(F)F)c4)c3)cc2-c2ccncc2)c1,67.3

# Test system: CCRF-CEM
# Assay: Growth inhibition of human CCRF-CEM cells assessed as cell growth at 10 uM incubated for 48 hrs by sulforhodamine B assay relative to control
# Type: functional
# Conditions: read-out: Activity
row,SMILES,growth at 10 µM [%]
1,COc1cc(Cl)cc(-c2nn(-c3cccc(NC(=O)c4ccc(N5CCOCC5)c(C(F)(F)F)c4)c3)cc2-c2ccncc2)c1,31.7

# Test system: NCI-H23
# Assay: Growth inhibition of human NCI-H23 cells assessed as cell growth at 10 uM incubated for 48 hrs by sulforhodamine B assay relative to control
# Type: functional
# Conditions: NCI-H23, 48 h, read-out: Activity
row,SMILES,growth at 10 µM [%]
1,COc1cc(Cl)cc(-c2nn(-c3cccc(NC(=O)c4ccc(N5CCOCC5)c(C(F)(F)F)c4)c3)cc2-c2ccncc2)c1,79

# Test system: HCT-15
# Assay: Growth inhibition of human HCT15 cells assessed as cell growth at 10 uM incubated for 48 hrs by sulforhodamine B assay relative to control
# Type: functional
# Conditions: HCT-15, 48 h, read-out: Activity
row,SMILES,growth at 10 µM [%]
1,COc1cc(Cl)cc(-c2nn(-c3cccc(NC(=O)c4ccc(N5CCOCC5)c(C(F)(F)F)c4)c3)cc2-c2ccncc2)c1,17.2

# Test system: OVCAR-4
# Assay: Growth inhibition of human OVCAR4 cells assessed as cell growth at 10 uM incubated for 48 hrs by sulforhodamine B assay relative to control
# Type: functional
# Conditions: OVCAR-4, 48 h, read-out: Activity
row,SMILES,growth at 10 µM [%]
1,COc1cc(Cl)cc(-c2nn(-c3cccc(NC(=O)c4ccc(N5CCOCC5)c(C(F)(F)F)c4)c3)cc2-c2ccncc2)c1,67.9

# Test system: Malme-3M
# Assay: Growth inhibition of human MALME-3M cells assessed as cell growth at 10 uM incubated for 48 hrs by sulforhodamine B assay relative to control
# Type: functional
# Conditions: read-out: Activity
row,SMILES,growth at 10 µM [%]
1,COc1cc(Cl)cc(-c2nn(-c3cccc(NC(=O)c4ccc(N5CCOCC5)c(C(F)(F)F)c4)c3)cc2-c2ccncc2)c1,57.9

# Test system: COLO 205
# Assay: Growth inhibition of human COLO205 cells assessed as cell growth at 10 uM incubated for 48 hrs by sulforhodamine B assay relative to control
# Type: functional
# Conditions: COLO 205, 48 h, read-out: Activity
row,SMILES,growth at 10 µM [%]
1,COc1cc(Cl)cc(-c2nn(-c3cccc(NC(=O)c4ccc(N5CCOCC5)c(C(F)(F)F)c4)c3)cc2-c2ccncc2)c1,52.7

# Test system: BT-549
# Assay: Growth inhibition of human BT549 cells assessed as cell growth at 10 uM incubated for 48 hrs by sulforhodamine B assay relative to control
# Type: functional
# Conditions: BT-549, 48 h, read-out: Activity
row,SMILES,growth at 10 µM [%]
1,COc1cc(Cl)cc(-c2nn(-c3cccc(NC(=O)c4ccc(N5CCOCC5)c(C(F)(F)F)c4)c3)cc2-c2ccncc2)c1,73

# Test system: A498
# Assay: Growth inhibition of human A498 cells assessed as cell growth at 10 uM incubated for 48 hrs by sulforhodamine B assay relative to control
# Type: functional
# Conditions: A498, 48 h, read-out: Activity
row,SMILES,growth at 10 µM [%]
1,COc1cc(Cl)cc(-c2nn(-c3cccc(NC(=O)c4ccc(N5CCOCC5)c(C(F)(F)F)c4)c3)cc2-c2ccncc2)c1,31.4

# Test system: OVCAR-5
# Assay: Growth inhibition of human OVCAR5 cells assessed as cell growth at 10 uM incubated for 48 hrs by sulforhodamine B assay relative to control
# Type: functional
# Conditions: OVCAR-5, 48 h, read-out: Activity
row,SMILES,growth at 10 µM [%]
1,COc1cc(Cl)cc(-c2nn(-c3cccc(NC(=O)c4ccc(N5CCOCC5)c(C(F)(F)F)c4)c3)cc2-c2ccncc2)c1,78.4

# Test system: U-251
# Assay: Growth inhibition of human U251 cells assessed as cell growth at 10 uM incubated for 48 hrs by sulforhodamine B assay relative to control
# Type: functional
# Conditions: U-251, 48 h, read-out: Activity
row,SMILES,growth at 10 µM [%]
1,COc1cc(Cl)cc(-c2nn(-c3cccc(NC(=O)c4ccc(N5CCOCC5)c(C(F)(F)F)c4)c3)cc2-c2ccncc2)c1,32.3

# Test system: MDA-MB-231
# Assay: Growth inhibition of human MDA-MB-231 cells assessed as cell growth at 10 uM incubated for 48 hrs by sulforhodamine B assay relative to control
# Type: functional
# Conditions: MDA-MB-231, 48 h, read-out: Activity
row,SMILES,growth at 10 µM [%]
1,COc1cc(Cl)cc(-c2nn(-c3cccc(NC(=O)c4ccc(N5CCOCC5)c(C(F)(F)F)c4)c3)cc2-c2ccncc2)c1,11.4

# Test system: Hs-578T
# Assay: Growth inhibition of human Hs578T cells assessed as cell growth at 10 uM incubated for 48 hrs by sulforhodamine B assay relative to control
# Type: functional
# Conditions: read-out: Activity
row,SMILES,growth at 10 µM [%]
1,COc1cc(Cl)cc(-c2nn(-c3cccc(NC(=O)c4ccc(N5CCOCC5)c(C(F)(F)F)c4)c3)cc2-c2ccncc2)c1,40.7

# Test system: M14
# Assay: Growth inhibition of human M14 cells assessed as cell growth at 10 uM incubated for 48 hrs by sulforhodamine B assay relative to control
# Type: functional
# Conditions: M14, 48 h, read-out: Activity
row,SMILES,growth at 10 µM [%]
1,COc1cc(Cl)cc(-c2nn(-c3cccc(NC(=O)c4ccc(N5CCOCC5)c(C(F)(F)F)c4)c3)cc2-c2ccncc2)c1,56.7

# Test system: SK-MEL-5
# Assay: Growth inhibition of human SK-MEL-5 cells assessed as cell growth at 10 uM incubated for 48 hrs by sulforhodamine B assay relative to control
# Type: functional
# Conditions: SK-MEL-5, 48 h, read-out: Activity
row,SMILES,growth at 10 µM [%]
1,COc1cc(Cl)cc(-c2nn(-c3cccc(NC(=O)c4ccc(N5CCOCC5)c(C(F)(F)F)c4)c3)cc2-c2ccncc2)c1,71.5

# Test system: SF-539
# Assay: Growth inhibition of human SF539 cells assessed as cell growth at 10 uM incubated for 48 hrs by sulforhodamine B assay relative to control
# Type: functional
# Conditions: SF-539, 48 h, read-out: Activity
row,SMILES,growth at 10 µM [%]
1,COc1cc(Cl)cc(-c2nn(-c3cccc(NC(=O)c4ccc(N5CCOCC5)c(C(F)(F)F)c4)c3)cc2-c2ccncc2)c1,52.1

# Test system: MCF7
# Assay: Growth inhibition of human MCF7 cells assessed as cell growth at 10 uM incubated for 48 hrs by sulforhodamine B assay relative to control
# Type: functional
# Conditions: MCF7, 48 h, read-out: Activity
row,SMILES,growth at 10 µM [%]
1,COc1cc(Cl)cc(-c2nn(-c3cccc(NC(=O)c4ccc(N5CCOCC5)c(C(F)(F)F)c4)c3)cc2-c2ccncc2)c1,45.3

# Test system: SW-620
# Assay: Growth inhibition of human SW620 cells assessed as cell growth at 10 uM incubated for 48 hrs by sulforhodamine B assay relative to control
# Type: functional
# Conditions: SW-620, 48 h, read-out: Activity
row,SMILES,growth at 10 µM [%]
1,COc1cc(Cl)cc(-c2nn(-c3cccc(NC(=O)c4ccc(N5CCOCC5)c(C(F)(F)F)c4)c3)cc2-c2ccncc2)c1,69.2

# Test system: OVCAR-8
# Assay: Growth inhibition of human OVCAR8 cells assessed as cell growth at 10 uM incubated for 48 hrs by sulforhodamine B assay relative to control
# Type: functional
# Conditions: OVCAR-8, 48 h, read-out: Activity
row,SMILES,growth at 10 µM [%]
1,COc1cc(Cl)cc(-c2nn(-c3cccc(NC(=O)c4ccc(N5CCOCC5)c(C(F)(F)F)c4)c3)cc2-c2ccncc2)c1,42.1

# Test system: A549
# Assay: Growth inhibition of human A549/ATCC cells assessed as cell growth at 10 uM incubated for 48 hrs by sulforhodamine B assay relative to control
# Type: functional
# Conditions: A549, 48 h, read-out: Activity
row,SMILES,growth at 10 µM [%]
1,COc1cc(Cl)cc(-c2nn(-c3cccc(NC(=O)c4ccc(N5CCOCC5)c(C(F)(F)F)c4)c3)cc2-c2ccncc2)c1,45.5

# Test system: T47D
# Assay: Growth inhibition of human T47D cells assessed as cell growth at 10 uM incubated for 48 hrs by sulforhodamine B assay relative to control
# Type: functional
# Conditions: read-out: Activity
row,SMILES,growth at 10 µM [%]
1,COc1cc(Cl)cc(-c2nn(-c3cccc(NC(=O)c4ccc(N5CCOCC5)c(C(F)(F)F)c4)c3)cc2-c2ccncc2)c1,49.2

# Test system: SNB-75
# Assay: Growth inhibition of human SNB75 cells assessed as cell growth at 10 uM incubated for 48 hrs by sulforhodamine B assay relative to control
# Type: functional
# Conditions: SNB-75, 48 h, read-out: Activity
row,SMILES,growth at 10 µM [%]
1,COc1cc(Cl)cc(-c2nn(-c3cccc(NC(=O)c4ccc(N5CCOCC5)c(C(F)(F)F)c4)c3)cc2-c2ccncc2)c1,34.9

# Test system: K562
# Assay: Growth inhibition of human K562 cells assessed as cell growth at 10 uM incubated for 48 hrs by sulforhodamine B assay relative to control
# Type: functional
# Conditions: K562, 48 h, read-out: Activity
row,SMILES,growth at 10 µM [%]
1,COc1cc(Cl)cc(-c2nn(-c3cccc(NC(=O)c4ccc(N5CCOCC5)c(C(F)(F)F)c4)c3)cc2-c2ccncc2)c1,4.03

# Test system: HL-60(TB)
# Assay: Growth inhibition of human HL-60(TB) cells assessed as cell growth at 10 uM incubated for 48 hrs by sulforhodamine B assay relative to control
# Type: functional
# Conditions: HL-60, 48 h, read-out: Activity
row,SMILES,growth at 10 µM [%]
1,COc1cc(Cl)cc(-c2nn(-c3cccc(NC(=O)c4ccc(N5CCOCC5)c(C(F)(F)F)c4)c3)cc2-c2ccncc2)c1,2.73

# Test system: NCI-H322M
# Assay: Growth inhibition of human NCI-H322M cells assessed as cell growth at 10 uM incubated for 48 hrs by sulforhodamine B assay relative to control
# Type: functional
# Conditions: read-out: Activity
row,SMILES,growth at 10 µM [%]
1,COc1cc(Cl)cc(-c2nn(-c3cccc(NC(=O)c4ccc(N5CCOCC5)c(C(F)(F)F)c4)c3)cc2-c2ccncc2)c1,89.6

# Test system: SK-MEL-28
# Assay: Growth inhibition of human SK-MEL-28 cells assessed as cell growth at 10 uM incubated for 48 hrs by sulforhodamine B assay relative to control
# Type: functional
# Conditions: SK-MEL-28, 48 h, read-out: Activity
row,SMILES,growth at 10 µM [%]
1,COc1cc(Cl)cc(-c2nn(-c3cccc(NC(=O)c4ccc(N5CCOCC5)c(C(F)(F)F)c4)c3)cc2-c2ccncc2)c1,53.2

# Test system: PC-3
# Assay: Growth inhibition of human PC3 cells assessed as cell growth at 10 uM incubated for 48 hrs by sulforhodamine B assay relative to control
# Type: functional
# Conditions: PC-3, 48 h, read-out: Activity
row,SMILES,growth at 10 µM [%]
1,COc1cc(Cl)cc(-c2nn(-c3cccc(NC(=O)c4ccc(N5CCOCC5)c(C(F)(F)F)c4)c3)cc2-c2ccncc2)c1,29.1

# Test system: HCC 2998
# Assay: Growth inhibition of human HCC2998 cells assessed as cell growth at 10 uM incubated for 48 hrs by sulforhodamine B assay relative to control
# Type: functional
# Conditions: HCC 2998, 48 h, read-out: Activity
row,SMILES,growth at 10 µM [%]
1,COc1cc(Cl)cc(-c2nn(-c3cccc(NC(=O)c4ccc(N5CCOCC5)c(C(F)(F)F)c4)c3)cc2-c2ccncc2)c1,52.3

# Test system: RPMI-8226
# Assay: Growth inhibition of human RPMI8226 cells assessed as cell growth at 10 uM incubated for 48 hrs by sulforhodamine B assay relative to control
# Type: functional
# Conditions: RPMI-8226, 48 h, read-out: Activity
row,SMILES,growth at 10 µM [%]
1,COc1cc(Cl)cc(-c2nn(-c3cccc(NC(=O)c4ccc(N5CCOCC5)c(C(F)(F)F)c4)c3)cc2-c2ccncc2)c1,25.2

# Test system: SNB-19
# Assay: Growth inhibition of human SNB19 cells assessed as cell growth at 10 uM incubated for 48 hrs by sulforhodamine B assay relative to control
# Type: functional
# Conditions: SNB-19, 48 h, read-out: Activity
row,SMILES,growth at 10 µM [%]
1,COc1cc(Cl)cc(-c2nn(-c3cccc(NC(=O)c4ccc(N5CCOCC5)c(C(F)(F)F)c4)c3)cc2-c2ccncc2)c1,75.5

# Test system: SR
# Assay: Growth inhibition of human SR cells assessed as cell growth at 10 uM incubated for 48 hrs by sulforhodamine B assay relative to control
# Type: functional
# Conditions: read-out: Activity
row,SMILES,growth at 10 µM [%]
1,COc1cc(Cl)cc(-c2nn(-c3cccc(NC(=O)c4ccc(N5CCOCC5)c(C(F)(F)F)c4)c3)cc2-c2ccncc2)c1,18.4
